Our source for the IC50 values is patent US11780839B2, “Compounds for treating Huntington's disease” (PTC THERAPEUTICS, INC., priority 2018, dated 2023).

pIC50: −log10 of the molar value.

This assay deals with Endogenous Huntingtin Protein. In words: Endogenous Huntingtin Protein Assay (ELISA-based Meso Scale Discovery electrochemiluminescence). It counts as cell-based. The following applies: MSD electrochemiluminescence, Table 1. On the procedure:
Compounds of Formula (I) or Formula (II) were tested using the Meso Scale Discovery (MSD) Assay provided in International Application No. PCT/US2016/066042, filed on Dec. 11, 2016 and claiming priority to U.S. Provisional Application 62/265,652 filed on Dec. 10, 2015, the entire contents of which are incorporated herein by reference.
The Endogenous Huntingtin Protein assay used in Example 1 was developed using the ELISA-based MSD electrochemiluminescence assay platform.
Endogenous Huntingtin Protein Assay
Meso Scale Discovery (MSD) 96-well or 384-well plates were coated overnight at 4° C. with MW1 (expanded polyglutamine) or MAB2166 monoclonal antibody (for capture) at a concentration of 1 μg/mL in PBS (30 μL per well). Plates were then washed three times with 300 μL wash buffer (0.05% Tween-20 in PBS) and blocked (100 μL blocking buffer; 5% BSA in PBS) for 4-5 hours at room temperature with rotational shaking and then washed three times with wash buffer.
Samples (25 μL) were transferred to the antibody-coated MSD plate and incubated overnight at 4° C. After removal of the lysates, the plate was washed three times with wash buffer, and 25 μL of #5656S (Cell signaling; rabbit monoclonal) secondary antibody (diluted to 0.25 μg/mL in 0.05% Tween-20 in blocking buffer) was added to each well and incubated with shaking for 1 Hour at room temperature. Following incubation with the secondary antibody, the wells were rinsed with wash buffer after which 25 μL of goat anti-rabbit SULFO TAG secondary detection antibody (required aspect of the MSD system) (diluted to 0.25 μg/mL in 0.05% Tween-20 in blocking buffer) was added to each well and incubated with shaking for 1 hour at room temperature. After rinsing three times with wash buffer, 150 μL of read buffer T with surfactant (MSD) were added to each empty well, and the plate was imaged on a SI 6000 imager (MSD) according to manufacturers' instructions provided for 96- or 384-well plates.
`CO[C@H]1[C@@H](N(C)c2ncc(-c3ccc(-c4cn[nH]c4)cc3O)nn2)CC(C)(C)NC1(C)C` [Cpd 293, 2-(3-{[(3S,4S)-3-methoxy-2,2,6,6-tetramethylpiperidin-4-yl](methyl)amino}-1,2,4-triazin-6-yl)-5-(1H-pyrazol-4-yl)phenol]: the negative-log IC50 (pIC50) was 6.30 to 7.00.
Next, `CN(c1ncc(-c2ccc(-c3ccncc3)cc2O)nn1)C1CC(C)(C)NC(C)(C)C1` [Cpd 8, 2-{3-[methyl(2,2,6,6-tetramethylpiperidin-4-yl)amino]-1,2,4-triazin-6-yl}-5-(pyridin-4-yl)phenol]: at least 7.00; `Cc1ncc(-c2ccc(-c3cnc(N(C)C4CC(C)(C)NC(C)(C)C4)nn3)c(O)c2)o1` [Cpd 74, 5-(2-methyl-1,3-oxazol-5-yl)-2-{3-[methyl(2,2,6,6-tetramethylpiperidin-4-yl)amino]-1,2,4-triazin-6-yl}phenol]: at least 7.00; `CN(c1ncc(-c2ccc(-c3cc(CN)c4nccn4n3)cc2O)nn1)C1CC(C)(C)NC(C)(C)C1` [Cpd 351, 5-[8-(aminomethyl)imidazo[1,2-b]pyridazin-6-yl]-2-{3-[methyl(2,2,6,6-tetramethylpiperidin-4-yl)amino]-1,2,4-triazin-6-yl}phenol]: at least 7.00.
Next, `CN(c1ncc(-c2ccc(-c3cn(C)nc3F)cc2O)nn1)C1CC(C)(C)NC(C)(C)C1` [Cpd 18, 5-(3-fluoro-1-methyl-1H-pyrazol-4-yl)-2-{3-[methyl(2,2,6,6-tetramethylpiperidin-4-yl)amino]-1,2,4-triazin-6-yl}phenol]: at least 7.00; `Cc1cnc(-c2ccc(-c3cnc(N(C)C4CC(C)(C)NC(C)(C)C4)nn3)c(O)c2)nc1` [Cpd 128, 5-(5-methylpyrimidin-2-yl)-2-{3-[methyl(2,2,6,6-tetramethylpiperidin-4-yl)amino]-1,2,4-triazin-6-yl}phenol]: 6.30 to 7.00; `CN1CCC2(CC1)CN(c1ncc(-c3ccc(-c4ccn(C)c(=O)c4)cc3O)nn1)C2` [Cpd 241, 4-{3-hydroxy-4-[3-(7-methyl-2,7-diazaspiro[3.5]nonan-2-yl)-1,2,4-triazin-6-yl]phenyl}-1-methylpyridin-2(1H)-one]: at least 7.00.
Next, `CC(C)NC1CCN(c2ncc(-c3ccc(-c4ccn(C)n4)cc3O)nn2)C1` (stereo not shown) [Cpd 213, 5-(1-methyl-1H-pyrazol-3-yl)-2-(3-{3-[(propan-2-yl)amino]pyrrolidin-1-yl}-1,2,4-triazin-6-yl)phenol]: 5.52 to 6.00.
For `CN[C@@H]1CN(c2ncc(-c3ccc(-c4cn[nH]c4)cc3O)nn2)C[C@H]1OC` [Cpd 346, 2-{3-[(3R,4R)-3-methoxy-4-(methylamino)pyrrolidin-1-yl]-1,2,4-triazin-6-yl}-5-(1H-pyrazol-4-yl)phenol], the negative logarithm of the IC50 (pIC50) was under 6.30.
For `CC(C)(C)NC1CCN(c2cnc(-c3ccc(-c4c[nH]nc4F)cc3O)nn2)C1` (stereo not shown) [Cpd 374, 2-{6-[3-(tert-butylamino)pyrrolidin-1-yl]-1,2,4-triazin-3-yl}-5-(3-fluoro-1H-pyrazol-4-yl)phenol] the value was at least 7.00; for `CC(=O)c1cnn(-c2ccc(-c3cnc(N(C)C4CC(C)(C)NC(C)(C)C4)nn3)c(O)c2)c1` [Cpd 68, 1-[1-(3-hydroxy-4-{3-[methyl(2,2,6,6-tetramethylpiperidin-4-yl)amino]-1,2,4-triazin-6-yl}phenyl)-1H-pyrazol-4-yl]ethan-l-one], at least 7.00.
Take `Oc1cc(-c2cn[nH]c2)ccc1-c1cnc(N2CCC3(CCCN3)C2)nn1` (stereo not shown) [Cpd 339, 2-[3-(1,7-diazaspiro[4.4]nonan-7-yl)-1,2,4-triazin-6-yl]-5-(1H-pyrazol-4-yl)phenol]: the negative-log IC50 (pIC50) is at least 7.00.
The compound `CN(c1ncc(-c2ccc(-n3nccn3)cc2O)nn1)[C@H]1C[C@]2(C)CC[C@](C)(C1)N2` [Cpd 417] had a pIC50 of at least 7.00.
For `CN(c1ncc(-c2ccc(-c3ccc4c(c3)ncn4C)cc2O)nn1)C1CC(C)(C)NC(C)(C)C1` [Cpd 285, 5-(1-methyl-1H-benzimidazol-5-yl)-2-{3-[methyl(2,2,6,6-tetramethylpiperidin-4-yl)amino]-1,2,4-triazin-6-yl}phenol] the value was at least 7.00; for `CN(c1ncc(-c2ccc(-c3cn[nH]c3)cc2O)nn1)C1C[C@H]2CCC[C@@H](C1)N2C` (stereo partly drawn) [Cpd 87, 2-(3-{methyl[(1R,3s,5S)-9-methyl-9-azabicyclo[3.3.1]nonan-3-yl]amino}-1,2,4-triazin-6-yl)-5-(1H-pyrazol-4-yl)phenol], at least 7.00.
For `CN(c1ncc(-c2ccc(-c3ncc4[nH]ncc4n3)cc2O)nn1)C1CC(C)(C)NC(C)(C)C1` [Cpd 195, 2-{3-[methyl(2,2,6,6-tetramethylpiperidin-4-yl)amino]-1,2,4-triazin-6-yl}-5-(1H-pyrazolo[4,3-d]pyrimidin-5-yl)phenol] the value was at least 7.00; for `CC(C)NC1CCN(c2ncc(-c3ccc(-c4ccc5nccn5n4)cc3O)nn2)C1` (stereo not shown) [Cpd 294], at least 7.00.
Next, `CN(c1ncc(-c2ccc(-n3cncn3)cc2O)nn1)C1CC(C)(C)NC(C)(C)C1` [Cpd 79, 2-{3-[methyl(2,2,6,6-tetramethylpiperidin-4-yl)amino]-1,2,4-triazin-6-yl}-5-(1H-1,2,4-triazol-1-yl)phenol]: at least 7.00; `CN(c1ncc(-c2ccc(-n3cnc(Cl)n3)cc2O)nn1)C1CC(C)(C)NC(C)(C)C1` [Cpd 133, 5-(3-chloro-1H-1,2,4-triazol-1-yl)-2-{3-[methyl(2,2,6,6-tetramethylpiperidin-4-yl)amino]-1,2,4-triazin-6-yl}phenol]: at least 7.00.
Compound `COc1ncnc(-c2ccc(-c3cnc(N(C)C4CC(C)(C)NC(C)(C)C4)nn3)c(O)c2)n1` [Cpd 88, 5-(4-methoxy-1,3,5-triazin-2-yl)-2-{3-[methyl(2,2,6,6-tetramethylpiperidin-4-yl)amino]-1,2,4-triazin-6-yl}phenol] had a negative-log IC50 (pIC50) of at least 7.00.
For `COCC(C)(C)NC1CCN(c2ncc(-c3ccc(-c4cn[nH]c4)cc3O)nn2)C1` (stereo not shown) [Cpd 341, 2-(3-{3-[(1-methoxy-2-methylpropan-2-yl)amino]pyrrolidin-1-yl}-1,2,4-triazin-6-yl)-5-(1H-pyrazol-4-yl)phenol] the value was at least 7.00; for `Oc1cc(-c2cn[nH]c2)ccc1-c1cnc(N2CCC(CNC3CCC3)C2)nn1` (stereo not shown) [Cpd 415, 2-(3-{3-[(cyclobutylamino)methyl]pyrrolidin-1-yl}-1,2,4-triazin-6-yl)-5-(1H-pyrazol-4-yl)phenol], at least 7.00; for `Cc1nnc(-c2ccc(-c3cnc(N(C)C4CC(C)(C)NC(C)(C)C4)nn3)c(O)c2)o1` [Cpd 81, 5-(5-methyl-1,3,4-oxadiazol-2-yl)-2-{3-[methyl(2,2,6,6-tetramethylpiperidin-4-yl)amino]-1,2,4-triazin-6-yl}phenol], at least 7.00.
For `CC(C)NC1CCN(c2ncc(-c3ccc(-c4cn[nH]c4)cc3O)nn2)C1` (stereo not shown) [Cpd 148, 2-(3-{3-[(propan-2-yl)amino]pyrrolidin-1-yl}-1,2,4-triazin-6-yl)-5-(1H-pyrazol-4-yl)phenol] the value was at least 7.00; for `Oc1cc(-c2cn[nH]c2)ccc1-c1cnc(N2CC3(CCNCC3)C2)nn1` [Cpd 96, 2-[3-(2,7-diazaspiro[3.5]nonan-2-yl)-1,2,4-triazin-6-yl]-5-(1H-pyrazol-4-yl)phenol], at least 7.00.
For `Cc1ncc(-c2ccc(-c3cnc(N4CCC(NC(C)C)C4)nn3)c(O)c2)o1` (stereo not drawn) [Cpd 289, 5-(2-methyl-1,3-oxazol-5-yl)-2-(3-{3-[(propan-2-yl)amino]pyrrolidin-l-yl}-1,2,4-triazin-6-yl)phenol] the value was at least 7.00; for `CN(c1ncc(-c2ccc(-c3c[nH]nc3F)cc2O)nn1)C1CC(C)(C)NC(C)(C)C1` [Cpd 12, 5-(3-fluoro-1H-pyrazol-4-yl)-2-{3-[methyl(2,2,6,6-tetramethylpiperidin-4-yl)amino]-1,2,4-triazin-6-yl}phenol], at least 7.00; for `Oc1cc(-c2cn[nH]c2)ccc1-c1cnc(N[C@H]2CCNC[C@H]2F)nn1` [Cpd 345, 2-(3-{[(3R,4S)-3-fluoropiperidin-4-yl]amino}-1,2,4-triazin-6-yl)-5-(1H-pyrazol-4-yl)phenol], 6.30 to 7.00.
Compound “2-{3-{[(2S)-2-aminopropyl](methyl)amino}-1,2,4-triazin-6-yl)-5-(1H-pyrazol-4-yl)phenol [Cpd 190]” had a pIC50 of at least 7.00.
Next, `CN(C)[C@@H]1CC[C@@H]2CN(c3ncc(-c4ccc(-c5cn[nH]c5)cc4O)nn3)C[C@@H]21` [Cpd 162, 2-{3-[(3aR,4R,6aS)-4-(dimethylamino)hexahydrocyclopenta[c]pyrrol-2(1H)-yl]-1,2,4-triazin-6-yl}-5-(1H-pyrazol-4-yl)phenol]: 6.30 to 7.00.
For `CN(c1ncc(-c2ccc(-c3cnn(C)c(=O)c3)cc2O)nn1)C1CC(C)(C)NC(C)(C)C1` [Cpd 147, 5-(3-hydroxy-4-{3-[methyl(2,2,6,6-tetramethylpiperidin-4-yl)amino]-1,2,4-triazin-6-yl}phenyl)-2-methylpyridazin-3(2H)-one] the value was at least 7.00.
